Assay results published in US20230391752A1, “PYRROLIDINE-3-CARBOXAMIDE DERIVATIVES AND RELATED USES” (Chulalongkorn University, priority 2020, published 2023).

System: HBV
Experiment: In vitro anti-HBV activity in HepG2.2.15 cell line (intracellular HBV DNA by qPCR at 1 μM)
Type: cell-based
Conditions: Hepatitis B virus, 144 h; HepG2.2.15 cells, 1 μM compound, 6 days, intracellular HBV DNA as percentage compared to vehicle control (0.5% DMSO)
Procedure: The stable transfected HBV cell line, called HepG2.2.15 cells was a valuable model with high reproducibility and commonly used for drug screening. To identify the anti-HBV activity, HepG2.2.15 cells were seeded at 5×10^5 cells/well with high glucose Dulbecco's modified Eagle medium (DMEM) containing 10% heat inactivated fetal bovine serum (FBS), 300 mg/L G418, non-essential amino acids (NEAA) 100 units/ml Antibiotic-Antimycotic, and allowed to stand for an overnight in an incubator set at 37° C. and 5% C02. HepG2.2.15 cells in each well were treated with the medium containing a compound (1 μM with 0.5% dimethyl sulfoxide (DMSO final concentration) for three days in the incubator. After that the medium was removed and fresh medium containing the compound was added to the cells for another 3 days. After 6 days of treatment, intracellular HBV DNA was extracted and determined by using quantitative real-time PCR (qPCR) technique with specific primers. Intrahepatic HBV DNA viral load was reported as percentage compared to vehicle control (0.5% DMSO) as shown in Table A.
“B” means % ranging between 80 and 90; “C” means % ranging between 70 and 80; “D” means % ranging between 60 and 70; “E” means % ranging between 45 and 60, “F” means %<45.

Question: Which activity at 1 µM does the source give for CC(O)c1c[nH]c(C(=O)N2CC[C@H](C(=O)Nc3cc(F)c(F)c(F)c3)C2)c1 (stereo partly drawn) [Example 39, (3S)-1-(4-(1-hydroxyethyl)-1H-pyrrole-2-carbonyl)-N-(3,4,5-trifluorophenyl)pyrrolidine-3-carboxamide] here?
Answer: 70 to 80%

Question: With N#Cc1c[nH]c(C(=O)N2CC[C@H](C(=O)Nc3ccc(F)c(Cl)c3)C2)c1 [Example 40, (S)—N-(3-chloro-4-fluorophenyl)-1-(4-cyano-1H-pyrrole-2-carbonyl)pyrrolidine-3-carboxamide] as the molecule, how does the activity at 1 µM read?
Answer: > 90%

Question: N#Cc1cc(NC(=O)[C@H]2CCN(C(=O)c3[nH]c4ccccc4c3Cl)C2)ccc1F [Example 43, (S)-1-(3-chloro-1H-indole-2-carbonyl)-N-(3-cyano-4-fluorophenyl)pyrrolidine-3-carboxamide] was tested. Which activity at 1 µM did it give?
Answer: 45 to 60%

Question: For Cc1ccc(C(=O)N2CC[C@H](C(=O)Nc3cc(F)c(F)c(F)c3)C2)s1 [Example 44, (S)-1-(5-methylthiophene-2-carbonyl)-N-(3,4,5-trifluorophenyl)pyrrolidine-3-carboxamide], which activity at 1 µM is on record?
Answer: 70 to 80%

Question: Which activity at 1 µM does the source give for O=C(Nc1cc(F)c(F)c(F)c1)[C@H]1CCN(C(=O)c2cc3cnccc3[nH]2)C1 [Example 46, (S)-1-(1H-pyrrolo[3,2-c]pyridine-2-carbonyl)-N-(3,4,5-trifluorophenyl)pyrrolidine-3-carboxamide] here?
Answer: 60 to 70%

Question: For O=C(Nc1cc(F)c(F)c(F)c1)[C@H]1CCN(C(=O)c2cc3ccncc3[nH]2)C1 [Example 47, (S)-1-(1H-pyrrolo[2,3-c]pyridine-2-carbonyl)-N-(3,4,5-trifluorophenyl)pyrrolidine-3-carboxamide], which activity at 1 µM is on record?
Answer: 80 to 90%

Question: How did the activity at 1 µM turn out when O=C(Nc1cc(F)c(F)c(F)c1)[C@H]1CCN(C(=O)c2ccc[nH]2)C1 [Example 48, (S)-1-(1H-pyrrole-2-carbonyl)-N-(3,4,5-trifluorophenyl)pyrrolidine-3-carboxamide] was run?
Answer: 80 to 90%

Question: How did the activity at 1 µM turn out when O=C(Nc1cc(F)c(F)c(F)c1)[C@H]1CCN(C(=O)c2cc3cc(F)c(F)cc3[nH]2)C1 [Example 49, (S)-1-(5,6-difluoro-1H-indole-2-carbonyl)-N-(3,4,5-trifluorophenyl)pyrrolidine-3-carboxamide] was run?
Answer: > 90%

Question: Which activity at 1 µM does the source give for N#Cc1ccc(C(=O)N2CC[C@H](C(=O)Nc3cc(F)c(F)c(F)c3)C2)[nH]1 [Example 50, (S)-1-(5-cyano-1H-pyrrole-2-carbonyl)-N-(3,4,5-trifluorophenyl)pyrrolidine-3-carboxamide] here?
Answer: 70 to 80%

Question: Which activity at 1 µM does the source give for Cc1ccc(C(=O)N2CC[C@H](C(=O)Nc3cc(F)c(F)c(Br)c3)C2)[nH]1 [Example 51, (S)—N-(3-bromo-4,5-difluorophenyl)-1-(5-methyl-1H-pyrrole-2-carbonyl)pyrrolidine-3-carboxamide] here?
Answer: 45 to 60%

Question: Which activity at 1 µM does the source give for O=C(Nc1cc(F)c(F)c(Br)c1)[C@H]1CCN(C(=O)c2cc3cnccc3[nH]2)C1 [Example 53, (S)—N-(3-bromo-4,5-difluorophenyl)-1-(1H-pyrrolo[3,2-c]pyridine-2-carbonyl)pyrrolidine-3-carboxamide] here?
Answer: 70 to 80%

Question: How did the activity at 1 µM turn out when O=C(Nc1cc(F)c(F)c(F)c1)[C@H]1CCN(C(=O)c2cc3cccnc3[nH]2)C1 [Example 54, (S)-1-(1H-pyrrolo[2,3-b]pyridine-2-carbonyl)-N-(3,4,5-trifluorophenyl)pyrrolidine-3-carboxamide] was run?
Answer: 70 to 80%

Question: Which activity at 1 µM does the source give for Cc1ccc2[nH]c(C(=O)N3CC[C@H](C(=O)Nc4cc(F)c(F)c(F)c4)C3)cc2c1 [Example 55, (S)-1-(5-methyl-1H-indole-2-carbonyl)-N-(3,4,5-trifluorphenyl)pyrrolidine-3-carboxamide] here?
Answer: > 90%

Question: How did the activity at 1 µM turn out when O=C(Nc1cc(F)c(F)c(F)c1)[C@H]1CCN(C(=O)c2ccc(CO)[nH]2)C1 [Example 56, (S)-1-(5-(hydroxymethyl)-1H-pyrrole-2-carbonyl)-N-(3,4,5-trifluorophenyl)pyrrolidine-3-carboxamide] was run?
Answer: > 90%

Question: How did the activity at 1 µM turn out when O=C(Nc1cc(F)c(F)c(F)c1)[C@H]1CCN(C(=O)c2cc3cc(F)ccc3[nH]2)C1 [Example 57, (S)-1-(5-fluoro-1H-indole-2-carbonyl)-N-(3,4,5-trifluorophenyl)pyrrolidine-3-carboxamide] was run?
Answer: > 90%

Question: How did the activity at 1 µM turn out when Cc1ccc(C(=O)N2CC[C@H](C(=O)Nc3cc(F)c(F)c(Br)c3)[C@@H]2C)[nH]1 [Example 58, (2S,3S)—N-(3-bromo-4,5-difluorophenyl)-2-methyl-1-(5-methyl-1H-pyrrole-2-carbonyl)pyrroline-3-carboxamide] was run?
Answer: 70 to 80%

Question: O=C(Nc1cc(F)c(F)c(F)c1)[C@H]1CCN(C(=O)c2[nH]c3ncccc3c2Cl)C1 [Example 59, (S)-1-(3-chloro-1H-pyrrolo[2,3-b]pyridine-2-carbonyl)-N-(3,4,5-trifluorophenyl)pyrrolidine-3-carboxamide] was tested. Which activity at 1 µM did it give?
Answer: 45 to 60%

Question: With CC(C)c1ccc(C(=O)N2CC[C@H](C(=O)Nc3cc(F)c(F)c(F)c3)C2)[nH]1 [Example 61, (S)-1-(5-isopropyl-1H-pyrrole-2-carbonyl)-N-(3,4,5-trifluorophenyl)pyrrolidine-3-carboxamide] as the molecule, how does the activity at 1 µM read?
Answer: 60 to 70%

Question: Cc1ccc(C(=O)N2CC[C@H](C(=O)Nc3cc(F)c(F)c(Cl)c3)C2)[nH]1 [Example 62, (S)—N-(3-chloro-4,5-difluorophenyl)-1-(5-methyl-1H-pyrrole-2-carbonyl)pyrrolidine-3-carboxamide] was tested. Which activity at 1 µM did it give?
Answer: 45 to 60%

Question: N#Cc1c(C(=O)N2CC[C@H](C(=O)Nc3cc(F)c(F)c(F)c3)C2)[nH]c2ncccc12 [Example 63, (S)-1-(3-cyano-1H-pyrrolo[2,3-b]pyridine-2-carbonyl)-N-(3,4,5-trifluorophenyl)pyrrolidine-3-carboxamide] was tested. Which activity at 1 µM did it give?
Answer: 70 to 80%

Question: With C[C@H]1[C@@H](C(=O)Nc2cc(F)c(F)c(F)c2)CCN1C(=O)c1cc2ncccc2[nH]1 [Example 64, (2S,3S)-2-methyl-1-(1H-pyrrolo[3,2-b]pyridine-2-carbonyl)-N-(3,4,5-trifluorophenyl) pyrrolidine-3-carboxamide] as the molecule, how does the activity at 1 µM read?
Answer: 70 to 80%

Question: With Cc1ccc(C(=O)N2CC[C@H](C(=O)Nc3ccc(F)c(C#N)c3)[C@@H]2C)[nH]1 [Example 66, (2S,3S)—N-(3-cyano-4-fluorophenyl)-2-methyl-1-(5-methyl-1H-pyrrole-2-carbonyl)pyrrolidine-3-carboxamide] as the molecule, how does the activity at 1 µM read?
Answer: 45 to 60%

Question: For O=C(Nc1cc(F)c(F)c(F)c1)[C@H]1CCN(C(=O)c2nc3cccnc3[nH]2)C1 [Example 67, (S)-1-(3H-imidazo[4,5-b]pyridine-2-carbonyl)-N-(3,4,5-trifluorophenyl)pyrrolidine-3-carboxamide], which activity at 1 µM is on record?
Answer: 45 to 60%

Question: With Cc1cc(NC(=O)[C@H]2CCN(C(=O)c3nc4ccccc4[nH]3)C2)ccc1F [Example 68, (S)-1-(1H-benzo[d]imidazole-2-carbonyl)-N-(4-fluoro-3-methylphenyl)pyrrolidine-3-carboxamide] as the molecule, how does the activity at 1 µM read?
Answer: < 45%

Question: How did the activity at 1 µM turn out when O=C(Nc1ccc(F)c(Cl)c1)[C@H]1CCN(C(=O)c2nc3cccnc3[nH]2)C1 [Example 69, (S)—N-(3-chloro-4-fluorophenyl)-1-(3H-imidazo[4,5-b]pyridine-2-carbonyl)pyrrolidine-3-carboxamide] was run?
Answer: 70 to 80%

Question: For O=C(NCc1cnc(Cl)s1)[C@H]1CCN(C(=O)c2[nH]c3ccccc3c2Cl)C1 [Example 71, (S)-1-(3-chloro-1H-indole-2-carbonyl)-N-((2-chlorothiazol-5-yl)methyl)pyrrolidine-3-carboxamide], which activity at 1 µM is on record?
Answer: 70 to 80%

Question: With C[C@H]1[C@@H](C(=O)Nc2cc(F)c(F)c(F)c2)CCN1C(=O)c1[nH]c2ccccc2c1CO [Example 72, (2S,3S)-1-(3-(hydroxymethyl)-1H-indole-2-carbonyl)-2-methyl-N-(3,4,5-trifluorophenyl)pyrrolidine-3-carboxamide] as the molecule, how does the activity at 1 µM read?
Answer: 60 to 70%

Question: Which activity at 1 µM does the source give for O=C(Nc1cc(F)c(F)c(F)c1)[C@H]1CCN(C(=O)c2ccc(C3CC3)[nH]2)C1 [Example 73, (S)-1-(5-cyclopropyl-1H-pyrrole-2-carbonyl)-N-(3,4,5-trifluorophenyl)pyrrolidine-3-carboxamide] here?
Answer: 45 to 60%

Question: N#Cc1cc(NC(=O)[C@H]2CCN(C(=O)c3ccc(-c4cccnc4)[nH]3)C2)ccc1F [Example 75, (S)—N-(3-cyano-4-fluorophenyl)-1-(5-(pyridin-3-yl)-1H-pyrrole-2-carbonyl)pyrrolidine-3-carboxamide] was tested. Which activity at 1 µM did it give?
Answer: 60 to 70%

Question: Which activity at 1 µM does the source give for N#Cc1cc(NC(=O)[C@H]2CCN(C(=O)c3ccc(-c4ccc(F)cc4)[nH]3)C2)ccc1F [Example 76, (S)—N-(3-cyano-4-fluorophenyl)-1-(5-(4-fluorophenyl)-1H-pyrrole-2-carbonyl)pyrrolidine-3-carboxamide] here?
Answer: 45 to 60%

Question: With O=C(Nc1cc(F)c(F)c(F)c1)[C@H]1CCN(C(=O)c2ccc(-c3ccncc3)[nH]2)C1 [Example 77, (S)-1-(5-(pyridin-4-yl)-1H-pyrrole-2-carbonyl)-N-(3,4,5-trifluorophenyl)pyrrolidine-3-carboxamide] as the molecule, how does the activity at 1 µM read?
Answer: < 45%

Question: N#Cc1cc(NC(=O)[C@H]2CCN(C(=O)c3ccc(-c4ccncc4)[nH]3)C2)ccc1F [Example 78, (S)—N-(3-cyano-4-fluorophenyl)-1-(5-(pyridin-4-yl)-1H-pyrrole-2-carbonyl)pyrrolidine-3-carboxamide] was tested. Which activity at 1 µM did it give?
Answer: 70 to 80%

Question: O=C(Nc1cc(F)c(F)c(F)c1)[C@H]1CCN(C(=O)c2ccc(-c3cncnc3)[nH]2)C1 [Example 79, (S)-1-(5-(pyrimidin-5-yl)-1H-pyrrole-2-carbonyl)-N-(3,4,5-trifluorophenyl)pyrrolidine-3-carboxamide] was tested. Which activity at 1 µM did it give?
Answer: < 45%
